The values below come from US20230382924A1, “MODULATORS OF CYSTIC FIBROSIS TRANSMEMBRANE CONDUCTANCE REGULATOR” (VERTEX PHARMACEUTICALS INCORPORATED, priority 2020, published 2023).

The target of the assay is CFTR (Homo sapiens, UniProt P13569). Nature of the assay: Membrane Potential Dye, Enteroid Assay B. Format: cell-based. To be noted: Table 9; for EC50: read-out: Ent. B EC50. The procedure: Base medium (ADF+++) consisted of Advanced DMEM/Ham's F12, 2 mM Glutamax, 10 mM HEPES, […] penicillin/streptomycin.
Bath 1 Buffer consisted of 1 mM MgCl2, 160 mM NaCl, 4.5 mM KCl, 10 mM HEPES, 10 mM Glucose, 2 mM CaCl2).
Chloride Free Buffer consisted of 1 mM Magnesium Gluconate, 2 mM Calcium Gluconate, 4.5 mM Potassium Gluconate, 160 mM Sodium Gluconate, 10 mM HEPES, 10 mM Glucose.
Bath 1 Dye Solution consisted of Bath 1 Buffer, 0.04% Pluronic F127, 20 μM Methyl Oxonol, 30 μM CaCCinh-A01, 30 μM Chicago Sky Blue.
Chloride Free Dye Solution consisted of Chloride Free Buffer, 0.04% Pluronic F127, 20 μM Methyl Oxonol, 30 μM CaCCinh-A01, 30 μM Chicago Sky Blue.
3. Enteroid Cell Harvesting and Seeding
Cells were recovered in cell recovery solution, collected by centrifugation at 650 rpm for 5 min at 4° C., resuspended in TryPLE and incubated for 5 min at 37° C. Cells were then collected by centrifugation at 650 rpm for 5 min at 4° C. and resuspended in IEMM containing 10 μM ROCK inhibitor (RI).
5. Membrane Potential Dye, Enteroid Assay B
Briefly, cells were washed 5 times in Bath 1 Buffer. Bath 1 Dye Solution was added and the cells were incubated for 25 min at room temperature. Following dye incubation, cells were washed 3 times in Chloride Free Dye Solution. Chloride transport was initiated by addition of Chloride Free Dye Stimulation Solution and the fluorescence signal was read for 15 min.

Each structure is given as a SMILES string.

As usually defined, the EC50 is the concentration giving half of the maximal effect.

CFTR, sequence (P13569 with tags, fused parts or gaps DEL508-508): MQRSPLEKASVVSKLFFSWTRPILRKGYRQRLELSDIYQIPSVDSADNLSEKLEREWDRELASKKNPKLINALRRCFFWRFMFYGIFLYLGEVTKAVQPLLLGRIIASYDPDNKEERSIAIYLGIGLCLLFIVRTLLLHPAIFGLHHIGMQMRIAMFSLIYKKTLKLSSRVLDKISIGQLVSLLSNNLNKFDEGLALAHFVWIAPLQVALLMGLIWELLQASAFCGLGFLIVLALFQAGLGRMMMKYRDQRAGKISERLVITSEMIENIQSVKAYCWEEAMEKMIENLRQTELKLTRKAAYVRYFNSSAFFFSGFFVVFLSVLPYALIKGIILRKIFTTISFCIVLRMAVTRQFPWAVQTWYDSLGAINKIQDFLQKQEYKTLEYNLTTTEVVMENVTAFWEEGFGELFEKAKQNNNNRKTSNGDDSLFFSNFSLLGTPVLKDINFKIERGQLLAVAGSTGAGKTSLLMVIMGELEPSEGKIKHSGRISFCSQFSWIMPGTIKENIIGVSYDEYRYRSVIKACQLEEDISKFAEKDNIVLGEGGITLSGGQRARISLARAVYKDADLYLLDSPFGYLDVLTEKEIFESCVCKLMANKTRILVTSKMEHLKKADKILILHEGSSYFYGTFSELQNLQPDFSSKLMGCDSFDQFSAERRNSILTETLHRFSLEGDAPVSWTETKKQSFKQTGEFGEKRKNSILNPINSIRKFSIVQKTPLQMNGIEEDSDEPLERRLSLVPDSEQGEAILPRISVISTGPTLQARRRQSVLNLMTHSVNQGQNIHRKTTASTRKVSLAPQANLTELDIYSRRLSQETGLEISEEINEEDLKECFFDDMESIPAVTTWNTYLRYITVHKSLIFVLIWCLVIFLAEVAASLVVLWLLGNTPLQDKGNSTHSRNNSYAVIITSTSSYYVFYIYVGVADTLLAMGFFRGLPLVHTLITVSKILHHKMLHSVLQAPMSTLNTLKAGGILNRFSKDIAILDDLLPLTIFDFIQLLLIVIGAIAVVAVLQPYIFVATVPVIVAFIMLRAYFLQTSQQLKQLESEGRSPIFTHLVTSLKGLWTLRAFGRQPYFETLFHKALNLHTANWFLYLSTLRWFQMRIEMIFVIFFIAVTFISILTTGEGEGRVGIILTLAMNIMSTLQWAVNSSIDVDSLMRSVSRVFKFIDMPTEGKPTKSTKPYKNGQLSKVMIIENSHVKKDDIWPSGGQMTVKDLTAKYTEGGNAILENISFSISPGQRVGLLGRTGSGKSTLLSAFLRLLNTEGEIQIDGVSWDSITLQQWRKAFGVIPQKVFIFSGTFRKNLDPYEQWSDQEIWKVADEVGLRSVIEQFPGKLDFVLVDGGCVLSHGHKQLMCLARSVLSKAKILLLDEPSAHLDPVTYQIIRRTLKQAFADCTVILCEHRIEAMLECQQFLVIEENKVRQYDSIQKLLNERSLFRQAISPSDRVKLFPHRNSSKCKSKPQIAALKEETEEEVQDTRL

With `Cc1cccc(C)c1-c1cc2nc(n1)NS(=O)(=O)c1cccc(c1)C(=O)NC[C@H](c1ccc(CC[Si](C)(C)C)cc1)O2` (stereo in doubt) [Compound 123], the EC50 is < 1000 nM.

Turning to `Cc1cccc(C)c1-c1cc2nc(n1)NS(=O)(=O)c1cccc(c1)C(=O)NC[C@H](c1ccc(CC[Si](C)(C)C)cc1)O2` (stereo in doubt) [Compound 124], the EC50 was < 1000 nM.

As to `Cc1cccc(C)c1-c1cc2nc(n1)NS(=O)(=O)c1cccc(c1)C(=O)NC[C@H](c1ccc(C[Si](C)(C)C)cc1)O2` (stereo in doubt) [Compound 125], the EC50 is < 1000 nM.

In the case of `Cc1cccc(C)c1-c1cc2nc(n1)NS(=O)(=O)c1cccc(c1)C(=O)NC[C@H](c1ccc(C[Si](C)(C)C)cc1)O2` (stereo in doubt) [Compound 126], the concentration for a half-maximal effect (EC50) was < 1000 nM.

Consider `Cc1cccc(C)c1-c1cc2nc(n1)NS(=O)(=O)c1cc(n(C)n1)C(=O)N[C@H](C)C(c1ccc(C(C)(C)C)cc1)O2` (stereo in doubt) [Compound 172], for which the “Ent. B Max Activity” value is listed as “++ (++ is 30-60%)” and the half-maximal effective concentration (EC50) was < 1000 nM.

Consider `Cc1cccc(C)c1-c1cc2nc(n1)NS(=O)(=O)c1cccc(c1)C(=O)NC[C@@H](CC(C)C)CO2` (stereo in doubt) [Compound 367], for which the “Ent. B Max Activity” value is “+++ (+++ is >60%)” and the 50% effective concentration (EC50) was < 1000 nM.

`Cc1cccc(C)c1-c1cc2nc(n1)NS(=O)(=O)c1cccc(c1)C(=O)NC[C@H](CC(C)C)CO2` (stereo in doubt) [Compound 368]: the “Ent. B Max Activity” value is recorded as “++ (++ is 30-60%)” and the concentration giving a half-maximal response (EC50) was < 1000 nM.

Consider `O=C1N[C@@H]2CCCCCC/C=C/c3ccccc3-c3cc(nc(n3)NS(=O)(=O)c3cccc1c3)OC2` [Compound 36, (10E,18R)-30-oxa-26λ^6-thia-19,27,29,32-tetraazapentacyclo[16.11.2.13,28.121,25.04,9]tritriaconta-1,3(32),4(9),5,7,10,21(33),22,24,28-decaene-20,26,26-trione], for which the “Ent. B Max Activity” value is “+++ (+++ is >60%)” and the 50% effective concentration (EC50) was < 1000 nM.

Take `O=C1N[C@@H]2CCCCCCCCc3ccccc3-c3cc(nc(n3)NS(=O)(=O)c3cccc1c3)OC2` [Compound 37, (18R)-30-Oxa-26λ^6-thia-19,27,29,32-tetraazapentacyclo[16.11.2.13,28.121,25.04,9]tritriaconta-1,3(32),4(9),5,7,21(33),22,24,28-nonaene-20,26,26-trione]: the “Ent. B Max Activity” value was “+++ (+++ is >60%)” and the 50% effective concentration (EC50) is < 1000 nM.

On to `Cc1cccc(/C=C/C2CC2)c1-c1cc2nc(n1)NS(=O)(=O)c1cccc(c1)C(=O)N[C@H](CC(C)C)CO2` [Compound 53, (11R)-6-[2-[(E)-2-Cyclopropylvinyl]-6-methyl-phenyl]-11-isobutyl-2,2-dioxo-9-oxa-2λ^6-thia-3,5,12,19-tetrazatricyclo[12.3.1.14,8]nonadeca-1(18),4(19),5,7,14,16-hexaen-13-one], for which the “Ent. B Max Activity” value is given as “+++ (+++ is >60%)” and the concentration giving a half-maximal response (EC50) is < 1000 nM.

With `Cc1cccc(C)c1-c1cc2nc(n1)NS(=O)(=O)c1cccc(c1)C(=O)N[C@H](CC(C)(C)O)CO2` [Compound 65], the “Ent. B Max Activity” value is given as “++ (++ is 30-60%)” and the EC50 fell in the range of 3000 to 30000 nM.

On to `Cc1cccc(C)c1-c1cc2nc(n1)NS(=O)(=O)c1cccc(c1)C(=O)N[C@H](CCC(C)(C)O)CO2` [Compound 67, (11R)-6-(2,6-Dimethylphenyl)-11-(3-hydroxy-3-methylbutyl)-2,2-dioxo-9-oxa-2λ^6-thia-3,5,12,19-tetrazatricyclo[12.3.1.14,8]nonadeca-1(18),4(19),5,7,14,16-hexaen-13-one], for which the “Ent. B Max Activity” value is “+ (+ is <30%)” and the 50% effective concentration (EC50) was in the range of 3000 to 30000 nM.

Regarding `Cc1cccc(C)c1-c1cc2nc(n1)NS(=O)(=O)c1cc(nn1C)C(=O)N[C@H](CC(C)(C)C)CO2` [Compound 77, (10R)-15-(2,6-Dimethylphenyl)-10-(2,2-dimethylpropyl)-5-methyl-3,3-dioxo-12-oxa-3λ^6-thia-2,5,6,9,16,17-hexazatricyclo[11.3.1.14,7]octadeca-1(17),4(18),6,13,15-pentaen-8-one], the “Ent. B Max Activity” value is “++ (++ is 30-60%)” and the concentration giving a half-maximal response (EC50) was 1000 to 3000 nM.

On to `Cc1cccc(C)c1-c1cc2nc(n1)NS(=O)(=O)c1cccc(c1)C(=O)NCC(c1ccc(CCCO)cc1)O2` (centres unmarked) [Compound 122], for which the “Ent. B Max Activity” value is reported as “+++ (+++ is >60%)” and the EC50 lay in the range of 1000 to 3000 nM.

`Cc1cccc(O)c1-c1cc2nc(n1)NS(=O)(=O)c1cccc(c1)C(=O)N[C@H](CC(C)C)CO2` [Compound 163]: the “Ent. B Max Activity” value is on record as “++ (++ is 30-60%)” and the concentration giving a half-maximal response (EC50) fell in the range of 3000 to 30000 nM.

For `CC(C)C[C@@H]1COc2cc(C3(C)CC3)nc(n2)NS(=O)(=O)c2cccc(c2)C(=O)N1` [Compound 164], the “Ent. B Max Activity” value is reported as “+ (+ is <30%)”.

Consider `Cc1cccc(C)c1-c1cc2nc(n1)NS(=O)(=O)c1cc(n(C)n1)C(=O)NCC(CC(C)C)(CC(C)C)CO2` [Compound 173], for which the “Ent. B Max Activity” value is given as “++ (++ is 30-60%)” and the EC50 was in the range of 1000 to 3000 nM.

Take `Cc1cccc2c1-c1cc3nc(n1)NS(=O)(=O)c1cccc(c1)C(=O)N[C@H](CCCCCCCC2)CO3` [Compound 213]: the “Ent. B Max Activity” value is listed as “+++ (+++ is >60%)” and the EC50 is < 1000 nM.

`C=CCCCCCC[C@@H]1COc2cc(-c3c(C)cccc3C=C)nc(n2)NS(=O)(=O)c2cccc(c2)C(=O)N1` [Compound 215]: the “Ent. B Max Activity” value was “++ (++ is 30-60%)” and the EC50 was < 1000 nM.

With `O=C1N[C@@H]2CCCCCCc3ccccc3-c3cc(nc(n3)NS(=O)(=O)c3cccc1c3)OC2` [Compound 216], the “Ent. B Max Activity” value was “+++ (+++ is >60%)” and the concentration giving a half-maximal response (EC50) is < 1000 nM.

As to `O=C1N[C@@H]2CCCCCCCc3ccccc3-c3cc(nc(n3)NS(=O)(=O)c3cccc1c3)OC2` [Compound 217], the “Ent. B Max Activity” value is “+++ (+++ is >60%)” and the concentration for a half-maximal effect (EC50) is < 1000 nM.

Consider `O=C1N[C@@H]2CCCCC/C=C/c3ccccc3-c3cc(nc(n3)NS(=O)(=O)c3cccc1c3)OC2` [Compound 218], for which the “Ent. B Max Activity” value was “+++ (+++ is >60%)” and the half-maximal effective concentration (EC50) is < 1000 nM.

Take `O=C1N[C@@H]2CCCC/C=C/c3ccccc3-c3cc(nc(n3)NS(=O)(=O)c3cccc1c3)OC2` [Compound 219]: the “Ent. B Max Activity” value is listed as “+++ (+++ is >60%)” and the EC50 was < 1000 nM.

For `C=CCCCCC[C@@H]1COc2cc(-c3ccccc3C=C)nc(n2)NS(=O)(=O)c2cccc(c2)C(=O)N1` [Compound 220], the “Ent. B Max Activity” value is listed as “+++ (+++ is >60%)” and the concentration giving a half-maximal response (EC50) is < 1000 nM.

Consider `C=CCCCC[C@@H]1COc2cc(-c3ccccc3C=C)nc(n2)NS(=O)(=O)c2cccc(c2)C(=O)N1` [Compound 221], for which the “Ent. B Max Activity” value was “+++ (+++ is >60%)” and the EC50 is < 1000 nM.

Consider `Cc1cccc(C)c1-c1cc2nc(n1)NS(=O)(=O)c1cccc(c1)C(=O)NCc1cc(Cl)ccc1O2` [Compound 295], for which the “Ent. B Max Activity” value was “+++ (+++ is >60%)” and the 50% effective concentration (EC50) is < 1000 nM.

On to `Cc1cccc(C)c1-c1cc2nc(n1)NS(=O)(=O)c1cc(no1)C(=O)N[C@H](CC(C)(C)C)CO2` [Compound 357], for which the “Ent. B Max Activity” value is given as “++ (++ is 30-60%)” and the half-maximal effective concentration (EC50) was 1000 to 3000 nM.

For `Cc1cccc(C)c1-c1cc2nc(n1)NS(=O)(=O)c1cc(n(C)n1)C(=O)N[C@H](CC(C)(C)C)CO2` [Compound 358], the “Ent. B Max Activity” value is recorded as “+++ (+++ is >60%)” and the concentration giving a half-maximal response (EC50) is < 1000 nM.

On to `Cc1cccc(CC2CCCCC2)c1-c1cc2nc(n1)NS(=O)(=O)c1cccc(c1)C(=O)N[C@H](CC(C)C)CO2` [Compound 387], for which the “Ent. B Max Activity” value is given as “+++ (+++ is >60%)” and the EC50 is < 1000 nM.

Take `Cc1cccc(C=C2CCCCC2)c1-c1cc2nc(n1)NS(=O)(=O)c1cccc(c1)C(=O)N[C@H](CC(C)C)CO2` [Compound 388]: the “Ent. B Max Activity” value is listed as “++ (++ is 30-60%)” and the EC50 was < 1000 nM.

On to `Cc1cccc(CCC(C)C)c1-c1cc2nc(n1)NS(=O)(=O)c1cccc(c1)C(=O)N[C@H](CC(C)C)CO2` [Compound 389], for which the “Ent. B Max Activity” value was “+++ (+++ is >60%)” and the EC50 is < 1000 nM.

Turning to `Cc1cccc(/C=C/C(C)C)c1-c1cc2nc(n1)NS(=O)(=O)c1cccc(c1)C(=O)N[C@H](CC(C)C)CO2` [Compound 390], the “Ent. B Max Activity” value is on record as “+++ (+++ is >60%)” and the EC50 was < 1000 nM.

As to `Cc1cccc(CCC2CC2)c1-c1cc2nc(n1)NS(=O)(=O)c1cccc(c1)C(=O)N[C@H](CC(C)C)CO2` [Compound 391], the “Ent. B Max Activity” value is given as “+++ (+++ is >60%)” and the EC50 was < 1000 nM.

For the molecule `Cc1cccc(C)c1-c1cc2nc(n1)NS(=O)(=O)c1cccc(c1)C(=O)N[C@H](C)[C@H](C)O2` [Compound 483], the “Ent. B Max Activity” value was “+ (+ is <30%)” and the EC50 is 1000 to 3000 nM.

With `Cc1cccc(C)c1-c1cc2nc(n1)NS(=O)(=O)c1cccc(c1)C(=O)N[C@H](C)[C@H](C)O2` [Compound 484], the “Ent. B Max Activity” value is “++ (++ is 30-60%)” and the EC50 lay within 3000 to 30000 nM.
